The values below come from US9403835B2, “Tetraaza-cyclopenta[a]indenyl and their use as positive allosteric modulators” (Merck Patent GmbH, priority 2011, dated 2016).

Some results are limits rather than exact numbers.

For this assay, the target named is T1, muscarinic M1 receptor (Homo sapiens, UniProt P11229).
T1 construct: expressed in transfected cells; host or cells: CHO (M1-CHO cells)
T1 sequence (P11229 1-460): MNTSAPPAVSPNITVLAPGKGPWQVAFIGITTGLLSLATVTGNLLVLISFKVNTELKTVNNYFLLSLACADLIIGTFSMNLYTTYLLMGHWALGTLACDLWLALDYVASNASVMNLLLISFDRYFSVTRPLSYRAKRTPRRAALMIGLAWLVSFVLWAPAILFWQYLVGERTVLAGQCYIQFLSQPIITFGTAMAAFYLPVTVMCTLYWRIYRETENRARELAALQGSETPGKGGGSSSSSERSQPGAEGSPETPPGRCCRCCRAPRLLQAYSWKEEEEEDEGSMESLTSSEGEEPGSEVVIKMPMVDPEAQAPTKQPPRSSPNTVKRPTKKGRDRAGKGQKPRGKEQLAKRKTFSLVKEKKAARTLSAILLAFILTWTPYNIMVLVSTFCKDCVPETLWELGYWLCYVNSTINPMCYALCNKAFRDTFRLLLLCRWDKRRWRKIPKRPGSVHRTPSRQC
Kind of assay: M1 PAM Assay (IP-One HTRF, IP1 in M1-CHO cells with EC20 of acetylcholine). Format: cell-based. As to conditions: 1 hour at room temperature, IP1 readout. The procedure:
M1-CHO cells are plated in culture medium (HAM's F12, P/S, 10% FCS) on the day before the experiment with 10 000 cells/well in a 384 well plate (3750 Corning White 384 w plate with lid). On the day of experiment, cells are washed with PBS and IPone buffer is added (glucose 5.5 mM, NaCl 146 mM, MgCl2 0.5 mM, HEPES 10 mM, LiCl 50 mM, CaCl2 1 mM, KCl 4.2 mM). Then diluted compounds (1% DMSO final concentration) are added together with EC20 of acetylcholine and incubated with the cells for 1 hour at room temperature. The intracellular concentration of IP1 is then measured using the IP-One HTRF assay from Cisbio.
A general note: TR-FRET usually uses a lanthanide donor and a delayed reading to cut background.
On to `Cc1nc2c3c(nn2c(C)c1C)CN(C(=O)c1ccccc1OCc1ccccc1)C3` [Example 29, (2-benzyloxy-phenyl)-(5,6,7-trimethyl-1H,3H-2,4,7a,8-tetraaza-cyclopenta[a]inden-2-yl)-methanone], for which the concentration giving a half-maximal response (EC50) (usually the concentration at which the effect is half-maximal) was 1 to 2 µM.
For `Cc1nc2c3c(nn2c(C)c1C)CN(C(=O)c1ccccc1OCCn1cccn1)C3` [Example 24, [2-(2-pyrazol-1-yl-ethoxy)-phenyl]-(5,6,7-trimethyl-1H,3H-2,4,7a,8-tetraaza-cyclopenta[a]inden-2-yl)-methanone] the value was 0.2 to 1 µM.
Take `CCOc1ccccc1C(=O)N1Cc2nn3cc(C)c(C)nc3c2C1` [Example 31, (5,6-Dimethyl-1H,3H-2,4,7a,8-tetraaza-cyclopenta[a]inden-2-yl)-(2-ethoxy-phenyl)-methanone]: the EC50 was 1 to 2 µM.
For `Cc1nc2c3c(nn2c(C)c1C)CN(C(=O)c1ccccc1C(F)(F)F)C3` [Example 43, (2-trifluoromethyl-phenyl)-(5,6,7-trimethyl-1H,3H-2,4,7a,8-tetraaza-cyclopenta[a]inden-2-yl)-methanone] the value was 1 to 2 µM; for `Cc1nc2c3c(nn2c(C)c1C)CN(C(=O)c1ccccc1OC1CCN(C)CC1)C3` [Example 4, [2-(1-methyl-piperidin-4-yloxy)-phenyl]-(5,6,7-trimethyl-1H,3H-2,4,7a,8-tetraaza-cyclopenta[a]inden-2-yl)-methanone], 0.2 to 1 µM; for `CCOc1ccc(F)cc1C(=O)N1Cc2nn3c(C)c(C)c(C)nc3c2C1` [Example 13, (2-ethoxy-5-fluoro-phenyl)-(5,6,7-trimethyl-1H,3H-2,4,7a,8-tetraaza-cyclopenta[a]inden-2-yl)-methanone], 0.2 to 1 µM.
`CCOc1ccccc1C(=O)N1Cc2nn3c(C)c(CC)c(C)nc3c2C1` [Example 27, (2-ethoxy-phenyl)-(6-ethyl-5,7-dimethyl-1H,3H-2,4,7a,8-tetraaza-cyclopenta[a]inden-2-yl)-methanone] came in with an EC50 of 1 to 2 µM.
For `Cc1nc2c3c(nn2c(C)c1Cl)CN(C(=O)c1ccccc1OC1CCN(C)CC1)C3` [Example 1, (6-chloro-5,7-dimethyl-1H,3H-2,4,7a,8-tetraaza-cyclopenta[a]inden-2-yl)-[2-(1-methyl-piperidin-4-yloxy)-phenyl]-methanone] the value was under 0.2 µM.
Take `Cc1cnc2c3c(nn2c1)CN(C(=O)c1ccccc1OCCN(C)C)C3` [Example 47, [2-(2-dimethylamino-ethoxy)-phenyl]-(6-methyl-1H,3H-2,4,7a,8-tetraaza-cyclopenta[a]inden-2-yl)-methanone]: the EC50 lay within 1 to 2 µM.
In turn, `COC(=O)c1ccccc1C(=O)N1Cc2nn3c(C)c(C)c(C)nc3c2C1` [Example 44, 2-(5,6,7-trimethyl-1H,3H-2,4,7a,8-tetraaza-cyclopenta[a]indene-2-carbonyl)-benzoic acid methyl ester] registered an EC50 of 1 to 2 µM.
In turn, `Cc1nc2c3c(nn2c(C)c1C)CN(C(=O)c1ccccc1N1CCN(C)CC1)C3` [Example 36, [2-(4-methyl-piperazin-1-yl)-phenyl]-(5,6,7-trimethyl-1H,3H-2,4,7a,8-tetraaza-cyclopenta[a]inden-2-yl)-methanone] came in with an EC50 of 1 to 2 µM.
Compound `Cc1nc2c3c(nn2c(C)c1C)CN(C(=O)c1ccccc1OCCC1CCCCC1)C3` [Example 40, [2-(2-cyclohexyl-ethoxy)-phenyl]-(5,6,7-trimethyl-1H,3H-2,4,7a,8-tetraaza-cyclopenta[a]inden-2-yl)-methanone] returned an EC50 of 1 to 2 µM.
The figure for `CCOc1cc(F)ccc1C(=O)N1Cc2nn3c(C)c(Cl)c(C)nc3c2C1` [Example 5, (6-chloro-5,7-dimethyl-1H,3H-2,4,7a,8-tetraaza-cyclopenta[a]inden-2-yl)-(2-ethoxy-4-fluoro-phenyl)-methanone] is 0.2 to 1 µM; for `Cc1cn2nc3c(c2nc1C)CN(C(=O)c1ccccc1OCCN(C)C)C3` [Example 32, [2-(2-dimethylamino-ethoxy)-phenyl]-(5,6-dimethyl-1H,3H-2,4,7a,8-tetraaza-cyclopenta[a]inden-2-yl)-methanone] it is 1 to 2 µM.
For `Cc1nc2c3c(nn2c(C)c1Cl)CN(C(=O)c1ccccc1OC(F)(F)C(F)F)C3` [Example 2, (6-chloro-5,7-dimethyl-1H,3H-2,4,7a,8-tetraaza-cyclopenta[a]inden-2-yl)-[2-(1,1,2,2-tetrafluoro-ethoxy)-phenyl]-methanone] the value was under 0.2 µM; for `CCOc1ccccc1C(=O)N1Cc2nn3c(C)c(C)c(C)nc3c2C1` [Example 12, (2-ethoxy-phenyl)-(5,6,7-trimethyl-1H,3H-2,4,7a,8-tetraaza-cyclopenta[a]inden-2-yl)-methanone], 0.2 to 1 µM.
For `Cc1nc2c3c(nn2c(C)c1C)CN(C(=O)c1ccccc1OC(F)(F)F)C3` [Example 17, (2-trifluoromethoxy-phenyl)-(5,6,7-trimethyl-1H,3H-2,4,7a,8-tetraaza-cyclopenta[a]inden-2-yl)-methanone] the value was 0.2 to 1 µM; for `Cc1nc2c3c(nn2c(C)c1Cl)CN(C(=O)c1ccccc1OC(C)C)C3` [Example 9, (6-chloro-5,7-dimethyl-1H,3H-2,4,7a,8-tetraaza-cyclopenta[a]inden-2-yl)-(2-isopropoxy-phenyl)-methanone], 0.2 to 1 µM; for `Cc1nc2c3c(nn2c(C)c1Cl)CN(C(=O)c1ccccc1OC1CCOCC1)C3` [Example 35, (6-chloro-5,7-dimethyl-1H,3H-2,4,7a,8-tetraaza-cyclopenta[a]inden-2-yl)-[2-(tetrahydro-pyran-4-yloxy)-phenyl]-methanone], 1 to 2 µM.
`Cc1cnc2c3c(nn2c1C)CN(C(=O)c1ccccc1OCCN(C)C)C3` [Example 38, [2-(2-dimethylamino-ethoxy)-phenyl]-(6,7-dimethyl-1H,3H-2,4,7a,8-tetraaza-cyclopenta[a]inden-2-yl)-methanone]: the EC50 fell in the range of 1 to 2 µM.
Consider `CSc1ccccc1C(=O)N1Cc2nn3c(C)c(C)c(C)nc3c2C1` [Example 25, (2-methylsulfanyl-phenyl)-(5,6,7-trimethyl-1H,3H-2,4,7a,8-tetraaza-cyclopenta[a]inden-2-yl)-methanone], for which the EC50 was 0.2 to 1 µM.
For `CCOc1ccc(Cl)cc1C(=O)N1Cc2nn3c(C)c(C)c(C)nc3c2C1` [Example 34, (5-chloro-2-ethoxy-phenyl)-(5,6,7-trimethyl-1H,3H-2,4,7a,8-tetraaza-cyclopenta[a]inden-2-yl)-methanone] the value was 1 to 2 µM.
For `Cc1cn2nc3c(c2nc1C)CN(C(=O)c1ccccc1N1CCCN(C)CC1)C3` [Example 33, (5,6-dimethyl-1H,3H-2,4,7a,8-tetraaza-cyclopenta[a]inden-2-yl)-[2-(4-methyl-[1,4]diazepan-1-yl)-phenyl]-methanone] the value was 1 to 2 µM.
`CCNc1ccccc1C(=O)N1Cc2nn3c(C)c(C)c(C)nc3c2C1` [Example 37, (2-ethylamino-phenyl)-(5,6,7-trimethyl-1H,3H-2,4,7a,8-tetraaza-cyclopenta[a]inden-2-yl)-methanone] yielded a concentration giving a half-maximal response (EC50) of 1 to 2 µM.
`CCCCOc1ccccc1C(=O)N1Cc2nn3c(C)c(C)c(C)nc3c2C1` [Example 21, (2-butoxy-phenyl)-(5,6,7-trimethyl-1H,3H-2,4,7a,8-tetraaza-cyclopenta[a]inden-2-yl)-methanone] came in with a half-maximal effective concentration (EC50) of 0.2 to 1 µM.
